# Measured values published in ChEMBL document CHEMBL3991601, “The target landscape of clinical kinase drugs” (Science, 2017).
# The source made the active and inactive calls. Rule as the data show it, for most assays here: actives have a measured Kd and inactives only a lower limit.
# Target: Tyrosine-protein kinase ABL1 (Homo sapiens, UniProt P00519)
# Also: in the data inactive means no Kd found up to 30 µM.
# Tyrosine-protein kinase ABL1, sequence (P00519 whole entry): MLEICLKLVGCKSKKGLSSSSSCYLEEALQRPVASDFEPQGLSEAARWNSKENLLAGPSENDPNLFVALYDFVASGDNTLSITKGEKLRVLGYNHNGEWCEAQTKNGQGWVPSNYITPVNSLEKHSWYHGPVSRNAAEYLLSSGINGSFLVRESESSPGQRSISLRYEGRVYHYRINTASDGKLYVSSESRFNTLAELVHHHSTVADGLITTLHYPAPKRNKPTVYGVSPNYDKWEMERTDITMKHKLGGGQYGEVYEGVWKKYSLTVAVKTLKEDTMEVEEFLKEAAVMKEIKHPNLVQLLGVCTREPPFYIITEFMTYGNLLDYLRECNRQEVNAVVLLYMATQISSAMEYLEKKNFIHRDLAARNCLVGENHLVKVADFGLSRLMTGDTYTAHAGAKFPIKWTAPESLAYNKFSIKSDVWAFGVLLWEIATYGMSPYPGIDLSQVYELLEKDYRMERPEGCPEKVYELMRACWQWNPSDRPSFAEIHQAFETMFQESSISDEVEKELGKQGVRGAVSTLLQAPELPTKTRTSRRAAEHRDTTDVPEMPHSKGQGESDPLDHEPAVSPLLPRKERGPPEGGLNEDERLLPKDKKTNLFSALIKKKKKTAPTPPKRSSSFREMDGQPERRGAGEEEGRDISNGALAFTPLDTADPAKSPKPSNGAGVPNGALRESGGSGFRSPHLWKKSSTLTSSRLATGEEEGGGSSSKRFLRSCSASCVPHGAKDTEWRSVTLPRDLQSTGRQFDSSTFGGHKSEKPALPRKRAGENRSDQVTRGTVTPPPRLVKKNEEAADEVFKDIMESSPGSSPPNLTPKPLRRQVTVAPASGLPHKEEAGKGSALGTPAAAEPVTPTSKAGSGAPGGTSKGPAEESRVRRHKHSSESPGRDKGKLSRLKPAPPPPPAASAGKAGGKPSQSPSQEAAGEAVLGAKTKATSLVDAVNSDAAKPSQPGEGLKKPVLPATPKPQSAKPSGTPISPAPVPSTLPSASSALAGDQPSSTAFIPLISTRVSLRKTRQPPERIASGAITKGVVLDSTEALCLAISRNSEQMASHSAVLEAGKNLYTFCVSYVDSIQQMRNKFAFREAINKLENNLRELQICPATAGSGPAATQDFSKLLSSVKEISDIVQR
row,SMILES,Kd
1,N[C@@H]1CCCN(c2c(/C=C3\SC(=O)NC3=O)cccc2-c2ccccc2)C1,> 30 µM (inactive)
2,Cc1ccc(S(=O)(=O)Nc2nc3ccccc3nc2Nc2ccc3nsnc3c2)cc1,> 30 µM (inactive)
3,CN1CC[C@@H](c2c(O)cc(O)c3c(=O)cc(-c4ccccc4Cl)oc23)[C@@H]1CO,> 30 µM (inactive)
4,Cc1cc(-c2cc(O)ccc2Cl)cc2nnc(Nc3ccc(OCCN4CCCC4)cc3)nc12,0.002 µM (active)

# Target: T1, Activin receptor type-1 (Homo sapiens, UniProt Q04771)
# T1 sequence (Q04771 whole entry): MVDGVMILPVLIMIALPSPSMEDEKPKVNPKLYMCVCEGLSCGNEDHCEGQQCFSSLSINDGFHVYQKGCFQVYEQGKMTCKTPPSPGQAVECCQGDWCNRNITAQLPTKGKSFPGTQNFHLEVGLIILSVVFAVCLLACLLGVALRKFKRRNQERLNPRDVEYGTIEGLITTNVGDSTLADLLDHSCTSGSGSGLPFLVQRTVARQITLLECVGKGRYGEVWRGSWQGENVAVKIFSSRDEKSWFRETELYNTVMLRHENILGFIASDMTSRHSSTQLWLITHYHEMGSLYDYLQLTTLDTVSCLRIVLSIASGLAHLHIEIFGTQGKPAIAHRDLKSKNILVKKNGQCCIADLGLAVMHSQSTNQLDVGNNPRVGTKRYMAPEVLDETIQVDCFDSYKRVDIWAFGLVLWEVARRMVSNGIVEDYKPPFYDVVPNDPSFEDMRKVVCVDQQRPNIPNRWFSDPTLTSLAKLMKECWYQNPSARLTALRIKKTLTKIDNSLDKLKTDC
row,SMILES,Kd
1,N[C@@H]1CCCN(c2c(/C=C3\SC(=O)NC3=O)cccc2-c2ccccc2)C1,> 30 µM (inactive)
2,Cc1ccc(S(=O)(=O)Nc2nc3ccccc3nc2Nc2ccc3nsnc3c2)cc1,> 30 µM (inactive)
3,CN1CC[C@@H](c2c(O)cc(O)c3c(=O)cc(-c4ccccc4Cl)oc23)[C@@H]1CO,> 30 µM (inactive)
4,Cc1cc(-c2cc(O)ccc2Cl)cc2nnc(Nc3ccc(OCCN4CCCC4)cc3)nc12,> 30 µM (inactive)

# Target: BMP-2-inducible protein kinase (Homo sapiens, UniProt Q9NSY1)
# Sequence (Q9NSY1 whole entry): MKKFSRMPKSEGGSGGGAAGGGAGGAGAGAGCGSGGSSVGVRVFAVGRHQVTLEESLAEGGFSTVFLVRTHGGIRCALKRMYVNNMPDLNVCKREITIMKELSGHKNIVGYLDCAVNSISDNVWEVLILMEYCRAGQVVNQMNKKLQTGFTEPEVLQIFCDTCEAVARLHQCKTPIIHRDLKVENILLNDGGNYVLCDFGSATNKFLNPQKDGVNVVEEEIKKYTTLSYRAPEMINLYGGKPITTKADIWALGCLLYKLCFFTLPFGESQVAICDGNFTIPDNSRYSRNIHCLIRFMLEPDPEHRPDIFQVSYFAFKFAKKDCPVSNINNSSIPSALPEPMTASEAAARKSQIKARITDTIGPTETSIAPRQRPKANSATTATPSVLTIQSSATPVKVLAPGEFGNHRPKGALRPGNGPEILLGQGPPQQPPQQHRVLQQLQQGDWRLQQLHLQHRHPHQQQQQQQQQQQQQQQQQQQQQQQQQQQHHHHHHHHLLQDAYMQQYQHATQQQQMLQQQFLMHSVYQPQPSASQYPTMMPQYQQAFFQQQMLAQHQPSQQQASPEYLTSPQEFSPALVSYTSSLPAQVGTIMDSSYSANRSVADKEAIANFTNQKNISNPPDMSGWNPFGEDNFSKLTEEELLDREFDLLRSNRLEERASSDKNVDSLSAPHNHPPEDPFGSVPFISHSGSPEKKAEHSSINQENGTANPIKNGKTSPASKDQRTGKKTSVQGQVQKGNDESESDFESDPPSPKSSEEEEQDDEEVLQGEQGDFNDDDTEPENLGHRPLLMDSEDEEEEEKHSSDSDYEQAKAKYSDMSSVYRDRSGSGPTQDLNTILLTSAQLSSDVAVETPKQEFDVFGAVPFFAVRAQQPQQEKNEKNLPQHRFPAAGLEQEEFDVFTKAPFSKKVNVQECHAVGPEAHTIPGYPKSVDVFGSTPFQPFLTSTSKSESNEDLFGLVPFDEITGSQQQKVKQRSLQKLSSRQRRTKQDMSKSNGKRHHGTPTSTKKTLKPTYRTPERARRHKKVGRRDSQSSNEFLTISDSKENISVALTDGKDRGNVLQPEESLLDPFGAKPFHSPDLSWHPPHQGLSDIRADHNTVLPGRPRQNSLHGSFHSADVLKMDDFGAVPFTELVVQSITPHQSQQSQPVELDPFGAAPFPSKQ
row,SMILES,Kd
1,N[C@@H]1CCCN(c2c(/C=C3\SC(=O)NC3=O)cccc2-c2ccccc2)C1,> 30 µM (inactive)
2,Cc1ccc(S(=O)(=O)Nc2nc3ccccc3nc2Nc2ccc3nsnc3c2)cc1,> 30 µM (inactive)
3,CN1CC[C@@H](c2c(O)cc(O)c3c(=O)cc(-c4ccccc4Cl)oc23)[C@@H]1CO,> 30 µM (inactive)
4,Cc1cc(-c2cc(O)ccc2Cl)cc2nnc(Nc3ccc(OCCN4CCCC4)cc3)nc12,> 30 µM (inactive)

# Target: Ephrin type-A receptor 4 (Homo sapiens, UniProt P54764)
row,SMILES,Kd
1,N[C@@H]1CCCN(c2c(/C=C3\SC(=O)NC3=O)cccc2-c2ccccc2)C1,> 30 µM (inactive)
2,Cc1ccc(S(=O)(=O)Nc2nc3ccccc3nc2Nc2ccc3nsnc3c2)cc1,> 30 µM (inactive)
3,CN1CC[C@@H](c2c(O)cc(O)c3c(=O)cc(-c4ccccc4Cl)oc23)[C@@H]1CO,> 30 µM (inactive)
4,Cc1cc(-c2cc(O)ccc2Cl)cc2nnc(Nc3ccc(OCCN4CCCC4)cc3)nc12,0.002 µM (active)

# Target: T2, Interleukin-1 receptor-associated kinase 4 (Homo sapiens, UniProt Q9NWZ3)
# T2 sequence (Q9NWZ3 whole entry): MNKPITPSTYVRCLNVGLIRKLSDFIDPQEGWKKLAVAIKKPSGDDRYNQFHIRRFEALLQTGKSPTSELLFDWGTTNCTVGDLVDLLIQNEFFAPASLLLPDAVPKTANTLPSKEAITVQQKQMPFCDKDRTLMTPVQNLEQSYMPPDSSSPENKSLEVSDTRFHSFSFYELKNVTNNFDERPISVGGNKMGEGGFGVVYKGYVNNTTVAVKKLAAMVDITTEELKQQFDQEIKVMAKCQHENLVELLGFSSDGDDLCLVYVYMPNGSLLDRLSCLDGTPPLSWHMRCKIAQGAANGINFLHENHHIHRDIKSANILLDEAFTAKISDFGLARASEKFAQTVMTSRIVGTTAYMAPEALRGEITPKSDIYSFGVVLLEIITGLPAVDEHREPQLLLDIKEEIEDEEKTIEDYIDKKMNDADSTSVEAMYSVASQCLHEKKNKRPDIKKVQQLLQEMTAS
row,SMILES,Kd
1,N[C@@H]1CCCN(c2c(/C=C3\SC(=O)NC3=O)cccc2-c2ccccc2)C1,> 30 µM (inactive)
2,Cc1ccc(S(=O)(=O)Nc2nc3ccccc3nc2Nc2ccc3nsnc3c2)cc1,> 30 µM (inactive)
3,CN1CC[C@@H](c2c(O)cc(O)c3c(=O)cc(-c4ccccc4Cl)oc23)[C@@H]1CO,> 30 µM (inactive)
4,Cc1cc(-c2cc(O)ccc2Cl)cc2nnc(Nc3ccc(OCCN4CCCC4)cc3)nc12,> 30 µM (inactive)

# Target: Tyrosine-protein kinase Lck (Homo sapiens, UniProt P06239)
# Sequence (P06239 whole entry): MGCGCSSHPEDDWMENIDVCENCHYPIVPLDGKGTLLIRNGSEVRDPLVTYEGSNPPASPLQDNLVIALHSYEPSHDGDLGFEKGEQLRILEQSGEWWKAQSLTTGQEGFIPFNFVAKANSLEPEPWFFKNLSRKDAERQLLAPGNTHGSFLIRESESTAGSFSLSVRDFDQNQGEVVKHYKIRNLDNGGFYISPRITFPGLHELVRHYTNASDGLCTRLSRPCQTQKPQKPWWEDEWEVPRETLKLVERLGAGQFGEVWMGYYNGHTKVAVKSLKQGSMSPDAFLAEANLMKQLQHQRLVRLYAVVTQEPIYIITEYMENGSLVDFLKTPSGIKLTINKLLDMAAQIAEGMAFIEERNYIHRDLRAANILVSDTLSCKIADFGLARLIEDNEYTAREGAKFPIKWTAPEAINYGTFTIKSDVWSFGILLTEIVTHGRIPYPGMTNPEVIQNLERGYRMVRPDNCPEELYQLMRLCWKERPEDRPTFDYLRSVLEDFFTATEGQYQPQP
row,SMILES,Kd
1,N[C@@H]1CCCN(c2c(/C=C3\SC(=O)NC3=O)cccc2-c2ccccc2)C1,> 30 µM (inactive)
2,Cc1ccc(S(=O)(=O)Nc2nc3ccccc3nc2Nc2ccc3nsnc3c2)cc1,> 30 µM (inactive)
3,CN1CC[C@@H](c2c(O)cc(O)c3c(=O)cc(-c4ccccc4Cl)oc23)[C@@H]1CO,> 30 µM (inactive)
4,Cc1cc(-c2cc(O)ccc2Cl)cc2nnc(Nc3ccc(OCCN4CCCC4)cc3)nc12,0.002 µM (active)

# Target: Serine/threonine-protein kinase PAK 4 (Homo sapiens, UniProt O96013)
# Sequence (O96013 whole entry): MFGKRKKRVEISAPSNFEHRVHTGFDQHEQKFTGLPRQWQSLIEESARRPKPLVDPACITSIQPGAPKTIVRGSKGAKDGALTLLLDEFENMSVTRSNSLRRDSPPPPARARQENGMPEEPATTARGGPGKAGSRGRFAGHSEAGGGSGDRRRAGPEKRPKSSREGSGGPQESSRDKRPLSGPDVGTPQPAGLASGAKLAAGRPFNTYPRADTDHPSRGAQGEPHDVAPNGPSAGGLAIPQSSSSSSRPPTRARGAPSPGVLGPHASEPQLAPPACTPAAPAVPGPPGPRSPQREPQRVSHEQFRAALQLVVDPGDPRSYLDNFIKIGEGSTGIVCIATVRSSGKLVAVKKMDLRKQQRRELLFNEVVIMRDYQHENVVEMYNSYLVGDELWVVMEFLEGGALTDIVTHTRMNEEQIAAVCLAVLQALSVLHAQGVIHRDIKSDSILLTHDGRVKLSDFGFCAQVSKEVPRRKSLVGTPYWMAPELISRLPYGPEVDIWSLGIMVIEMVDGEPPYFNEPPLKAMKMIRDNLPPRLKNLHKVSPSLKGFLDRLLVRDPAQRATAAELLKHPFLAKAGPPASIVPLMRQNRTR
row,SMILES,Kd
1,N[C@@H]1CCCN(c2c(/C=C3\SC(=O)NC3=O)cccc2-c2ccccc2)C1,> 30 µM (inactive)
2,Cc1ccc(S(=O)(=O)Nc2nc3ccccc3nc2Nc2ccc3nsnc3c2)cc1,> 30 µM (inactive)
3,CN1CC[C@@H](c2c(O)cc(O)c3c(=O)cc(-c4ccccc4Cl)oc23)[C@@H]1CO,> 30 µM (inactive)
4,Cc1cc(-c2cc(O)ccc2Cl)cc2nnc(Nc3ccc(OCCN4CCCC4)cc3)nc12,> 30 µM (inactive)

# Target: Serine/threonine-protein kinase N2 (Homo sapiens, UniProt Q16513)
# Sequence (Q16513 whole entry): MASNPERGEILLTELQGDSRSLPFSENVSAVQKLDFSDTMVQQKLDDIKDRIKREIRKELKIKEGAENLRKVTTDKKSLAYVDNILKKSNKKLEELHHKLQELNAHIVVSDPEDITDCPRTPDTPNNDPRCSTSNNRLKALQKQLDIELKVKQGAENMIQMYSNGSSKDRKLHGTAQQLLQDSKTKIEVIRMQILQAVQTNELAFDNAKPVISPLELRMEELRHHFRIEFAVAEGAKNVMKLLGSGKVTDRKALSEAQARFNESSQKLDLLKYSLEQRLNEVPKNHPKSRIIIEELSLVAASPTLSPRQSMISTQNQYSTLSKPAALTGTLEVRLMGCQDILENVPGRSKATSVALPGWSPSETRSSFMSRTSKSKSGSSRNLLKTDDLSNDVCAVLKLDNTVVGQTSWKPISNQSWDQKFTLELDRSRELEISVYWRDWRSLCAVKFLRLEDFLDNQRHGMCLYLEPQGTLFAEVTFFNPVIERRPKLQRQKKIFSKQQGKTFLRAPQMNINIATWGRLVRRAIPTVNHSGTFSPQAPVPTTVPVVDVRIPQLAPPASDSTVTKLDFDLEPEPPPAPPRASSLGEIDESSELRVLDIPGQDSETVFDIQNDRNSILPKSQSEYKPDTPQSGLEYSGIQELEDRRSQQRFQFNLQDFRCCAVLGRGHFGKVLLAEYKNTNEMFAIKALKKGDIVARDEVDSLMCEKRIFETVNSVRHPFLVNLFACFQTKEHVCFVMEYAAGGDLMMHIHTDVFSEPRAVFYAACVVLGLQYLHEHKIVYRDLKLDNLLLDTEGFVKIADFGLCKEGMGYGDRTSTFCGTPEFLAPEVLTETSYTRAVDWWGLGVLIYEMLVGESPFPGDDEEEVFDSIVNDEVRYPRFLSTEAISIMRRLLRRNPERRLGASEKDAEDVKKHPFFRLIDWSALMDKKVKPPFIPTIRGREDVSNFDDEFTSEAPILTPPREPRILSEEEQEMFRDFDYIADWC
row,SMILES,Kd
1,N[C@@H]1CCCN(c2c(/C=C3\SC(=O)NC3=O)cccc2-c2ccccc2)C1,> 30 µM (inactive)
2,Cc1ccc(S(=O)(=O)Nc2nc3ccccc3nc2Nc2ccc3nsnc3c2)cc1,> 30 µM (inactive)
3,CN1CC[C@@H](c2c(O)cc(O)c3c(=O)cc(-c4ccccc4Cl)oc23)[C@@H]1CO,> 30 µM (inactive)
4,Cc1cc(-c2cc(O)ccc2Cl)cc2nnc(Nc3ccc(OCCN4CCCC4)cc3)nc12,> 30 µM (inactive)

# Target: T3, cGMP-dependent protein kinase 1 (Homo sapiens, UniProt Q13976)
# T3 sequence (Q13976 whole entry): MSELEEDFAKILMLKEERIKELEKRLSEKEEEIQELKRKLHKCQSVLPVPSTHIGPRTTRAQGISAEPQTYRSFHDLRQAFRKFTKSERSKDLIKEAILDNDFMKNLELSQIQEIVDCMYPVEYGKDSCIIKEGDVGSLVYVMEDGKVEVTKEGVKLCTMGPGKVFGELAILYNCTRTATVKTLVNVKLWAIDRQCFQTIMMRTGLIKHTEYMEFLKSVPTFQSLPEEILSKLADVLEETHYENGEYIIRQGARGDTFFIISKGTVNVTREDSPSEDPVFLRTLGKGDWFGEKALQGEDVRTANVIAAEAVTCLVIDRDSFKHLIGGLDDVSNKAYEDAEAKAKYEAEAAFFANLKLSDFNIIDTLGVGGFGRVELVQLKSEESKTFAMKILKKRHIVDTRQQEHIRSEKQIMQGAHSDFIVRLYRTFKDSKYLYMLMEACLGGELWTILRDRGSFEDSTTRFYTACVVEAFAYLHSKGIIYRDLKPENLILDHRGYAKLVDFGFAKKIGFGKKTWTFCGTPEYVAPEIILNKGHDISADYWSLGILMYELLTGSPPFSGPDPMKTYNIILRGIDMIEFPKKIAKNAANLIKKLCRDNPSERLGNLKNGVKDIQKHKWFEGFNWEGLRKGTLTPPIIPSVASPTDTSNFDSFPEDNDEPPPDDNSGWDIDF
row,SMILES,Kd
1,N[C@@H]1CCCN(c2c(/C=C3\SC(=O)NC3=O)cccc2-c2ccccc2)C1,> 30 µM (inactive)
2,Cc1ccc(S(=O)(=O)Nc2nc3ccccc3nc2Nc2ccc3nsnc3c2)cc1,> 30 µM (inactive)
3,CN1CC[C@@H](c2c(O)cc(O)c3c(=O)cc(-c4ccccc4Cl)oc23)[C@@H]1CO,> 30 µM (inactive)
4,Cc1cc(-c2cc(O)ccc2Cl)cc2nnc(Nc3ccc(OCCN4CCCC4)cc3)nc12,> 30 µM (inactive)

# Target: T4, Exosome RNA helicase MTR4 (Homo sapiens, UniProt P42285)
# T4 sequence (P42285 whole entry): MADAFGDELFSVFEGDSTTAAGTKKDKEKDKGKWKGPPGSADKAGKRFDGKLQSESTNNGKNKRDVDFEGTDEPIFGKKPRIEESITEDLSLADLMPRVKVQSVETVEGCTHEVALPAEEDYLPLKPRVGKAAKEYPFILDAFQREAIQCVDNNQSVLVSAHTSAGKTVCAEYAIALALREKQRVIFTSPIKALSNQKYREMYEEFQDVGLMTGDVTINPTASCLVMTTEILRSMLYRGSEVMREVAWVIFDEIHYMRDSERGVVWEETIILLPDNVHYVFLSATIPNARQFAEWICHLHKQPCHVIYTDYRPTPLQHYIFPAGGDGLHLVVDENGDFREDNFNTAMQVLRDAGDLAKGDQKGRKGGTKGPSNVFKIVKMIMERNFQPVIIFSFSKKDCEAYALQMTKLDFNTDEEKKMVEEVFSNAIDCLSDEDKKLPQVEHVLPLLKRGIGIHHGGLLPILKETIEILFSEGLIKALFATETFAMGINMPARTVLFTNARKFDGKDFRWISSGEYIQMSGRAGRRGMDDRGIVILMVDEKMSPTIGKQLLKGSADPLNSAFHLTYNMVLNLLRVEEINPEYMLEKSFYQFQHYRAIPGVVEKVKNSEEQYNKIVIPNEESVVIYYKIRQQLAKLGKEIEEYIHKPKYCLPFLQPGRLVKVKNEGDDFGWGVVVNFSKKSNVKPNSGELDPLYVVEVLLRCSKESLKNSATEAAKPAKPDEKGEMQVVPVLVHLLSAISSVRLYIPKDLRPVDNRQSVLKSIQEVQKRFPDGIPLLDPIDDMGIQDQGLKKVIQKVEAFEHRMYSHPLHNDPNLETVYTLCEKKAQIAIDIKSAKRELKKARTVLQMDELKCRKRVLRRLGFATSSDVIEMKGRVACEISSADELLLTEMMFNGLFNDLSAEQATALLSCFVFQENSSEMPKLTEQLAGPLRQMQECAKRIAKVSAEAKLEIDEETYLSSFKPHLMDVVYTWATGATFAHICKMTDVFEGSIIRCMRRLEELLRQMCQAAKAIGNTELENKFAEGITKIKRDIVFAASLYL
row,SMILES,Kd
1,N[C@@H]1CCCN(c2c(/C=C3\SC(=O)NC3=O)cccc2-c2ccccc2)C1,> 30 µM (inactive)
2,Cc1ccc(S(=O)(=O)Nc2nc3ccccc3nc2Nc2ccc3nsnc3c2)cc1,> 30 µM (inactive)
3,CN1CC[C@@H](c2c(O)cc(O)c3c(=O)cc(-c4ccccc4Cl)oc23)[C@@H]1CO,> 30 µM (inactive)
4,Cc1cc(-c2cc(O)ccc2Cl)cc2nnc(Nc3ccc(OCCN4CCCC4)cc3)nc12,> 30 µM (inactive)
